Assay results reported in patent publication US9988430B2, “Stable GLP-1 based GLP-1/glucagon receptor co-agonists” (Novo Nordisk A/S, priority 2014, dated 2018).
*1 amine or outer side, *2 acyl side, *3 side chain or, on linkers, in order; H or OH if unused. Where a SMILES comes first, the peptide text is derived from it. Bridges are numbered along the chain shown (N, C = ends). Roman numbers before positions name the chains, in order. [ ]: non-standard residue; d: D form. The star is where a group is joined. C18 diacid = O=C(O)CCCCCCCCCCCCCCCCC(=O)*; γGlu = O=C(O)[C@H](CCC(=O)[*:2])N[*:1]; Desaminohistidyl = O=C(CCc1c[nH]cn1)*; Aib = CC(C)(N)C(=O)O

Target: T1, human glucagon receptor (Homo sapiens, UniProt P47871)
T1 construct: expressed in transfected cells; host or cells: membranes of BHK cells, clone BHK hGCGR A3*25
T1 sequence (P47871 26-477): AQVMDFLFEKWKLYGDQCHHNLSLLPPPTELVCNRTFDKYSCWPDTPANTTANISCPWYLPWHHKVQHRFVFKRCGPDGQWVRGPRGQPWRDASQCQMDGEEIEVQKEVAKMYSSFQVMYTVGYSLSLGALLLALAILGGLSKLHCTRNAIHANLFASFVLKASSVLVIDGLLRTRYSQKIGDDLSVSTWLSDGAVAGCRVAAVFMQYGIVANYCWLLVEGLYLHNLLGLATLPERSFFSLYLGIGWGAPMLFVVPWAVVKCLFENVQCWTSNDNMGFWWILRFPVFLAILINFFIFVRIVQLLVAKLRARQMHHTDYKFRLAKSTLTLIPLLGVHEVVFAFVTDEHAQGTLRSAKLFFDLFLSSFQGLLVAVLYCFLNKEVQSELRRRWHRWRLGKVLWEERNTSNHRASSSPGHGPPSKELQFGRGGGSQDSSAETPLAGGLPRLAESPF
Assay: Assay (I)(b): glucagon receptor potency, CRE luciferase reporter gene assay in BHK cells
Type: cell-based
Details: BHK cells expressing human glucagon receptor, read-out: EC50 GlucagonR
Description: Assay (I): GLP-1 and Glucagon Receptor Potency The purpose of this example was to test the activity or potency, of the GLP-1 derivatives of the invention, in vitro. The in vitro potency is the measure of human GLP-1 receptor (GLP-1R) or glucagon receptor (glucagonR) activation, respectively, in a whole cell assay. In vitro potency was determined by measuring the cellular response of human GLP-1 or glucagon receptor activation, respectively, in a reporter gene assay. The assay was performed in a BHK cell line that stably expresses either the human GLP-1 receptor or the human glucagon receptor and comprises the DNA for the cAMP response element (CRE) coupled to a promoter and the gene for firefly luciferase (CRE luciferase). […] When assay incubation was completed, the luciferase substrate (luciferin) was added and the enzyme converted luciferin to oxyluciferin and produces bioluminescence. The luminescence was measured as the readout for the assay. […] The cells were counted and adjusted to 5×10EE3 cells/50 μl (1×10EE5 cells/ml) in Assay Medium. […] Each assay plate was read in a Perkin Elmer TopCount NXT instrument. […] EC50 values were calculated by the software and reported in pM.

EC50: 0.143 nM
SMILES: CC[C@H](C)[C@H](NC(=O)[C@H](Cc1ccccc1)NC(=O)[C@H](CCC(=O)O)NC(=O)[C@H](CCCNC(=N)N)NC(=O)[C@H](C)NC(=O)[C@H](C)NC(=O)[C@H](CCC(N)=O)NC(=O)CNC(=O)[C@H](CCC(=O)O)NC(=O)[C@H](CC(C)C)NC(=O)[C@H](Cc1ccc(O)cc1)NC(=O)[C@H](CCCNC(=N)N)NC(=O)[C@H](CO)NC(=O)[C@@H](NC(=O)[C@H](CC(=O)O)NC(=O)[C@H](CO)NC(=O)[C@@H](NC(=O)[C@H](Cc1ccccc1)NC(=O)[C@@H](NC(=O)CNC(=O)[C@H](Cc1c[nH]cn1)NC(=O)C(C)(C)NC(=O)CCc1c[nH]cn1)[C@@H](C)O)[C@@H](C)O)C(C)C)C(=O)N[C@@H](C)C(=O)N[C@@H](Cc1c[nH]c2ccccc12)C(=O)N[C@@H](CC(C)C)C(=O)N[C@@H](CC(C)C)C(=O)N[C@@H](CCCCNC(=O)CNC(=O)[C@H](CO)NC(=O)[C@H](CCC(=O)O)NC(=O)CNC(=O)[C@H](CO)NC(=O)CC[C@H](NC(=O)CC[C@H](NC(=O)CCCCCCCCCCCCCCCCC(=O)O)C(=O)O)C(=O)O)C(=O)N[C@H](C(N)=O)[C@@H](C)O [Example 8, N^ε34-[2-[[(2S)-2-[[(2S)-4-carboxy-2-[[2-[[(2S)-2-[[(4S)-4-carboxy-4-[[(4S)-4-carboxy-4-(17-carboxyheptadecanoylamino)butanoyl]amino]butanoyl]amino]-3-hydroxypropanoyl]amino]acetyl]amino]butanoyl]amino]-3-hydroxypropanoyl]amino]acetyl]-[Imp7,Aib8,His9,Arg18,Arg26,Leu33,Thr35]-GLP-1-(7-35)-peptide amide] (I: Desaminohistidyl-[Aib]HGTFTSDVSRYLEGQAAREFIAWLLKT-NH2 / II: {C18 diacid-γGlu-γGlu}-SGESG; amide I:27-II:C)
